Data reported in PMC10255569, “Discovery of Peptidic Ligands against the SARS-CoV-2 Spike Protein and Their Use in the Development of a Highly Sensitive Personal Use Colorimetric COVID-19 Biosensor” (ACS Sensors, 2023).
“Also recorded” adds a separate entry of the source. Non-standard residues stand in square brackets, D forms with d. Residues, ends and D or L forms follow the SMILES beside them. *: point of attachment. Biotin = O=C1N[C@H]2[C@H](CS[C@H]2CCCCC(=O)*)N1; Phe(3,5-F2) = N[C@@H](Cc1cc(F)cc(F)c1)C(=O)O; hCit = NC(=O)NCCCC[C@H](N)C(=O)O; Aad = N[C@@H](CCCC(=O)O)C(=O)O; Nva = CCC[C@H](N)C(=O)O; AEEA = NCCOCCOCC(=O)O

Molecular target: Delta-variant SARS-CoV-2 spike protein receptor-binding domain (L452R, T478K) (Severe acute respiratory syndrome coronavirus 2, UniProt P0DTC2, L452R/T478K)
Parameters: species or system SARS-CoV-2 Delta variant

Compound: CCC[C@H](NC(=O)[C@H](CCCCNC(N)=O)NC(=O)[C@H](CCCNC(=N)N)NC(=O)[C@H](Cc1ccc(OC)cc1)NC(=O)[C@H](N)Cc1c[nH]cn1)C(=O)N[C@@H](CCCNC(=N)N)C(=O)N[C@@H](Cc1cc(F)cc(F)c1)C(=O)N[C@@H](Cc1ccccc1)C(=O)N[C@@H](CCCC(=O)O)C(=O)NCCOCCOCC(=O)NCCOCCOCC(=O)N[C@@H](CCCCNC(=O)CCCC[C@@H]1SC[C@@H]2NC(=O)N[C@@H]21)C(N)=O [L10-2] (H-[dH]Y(Me)R[hCit][Nva]R[Phe(3,5-F2)]F[Aad][AEEA][AEEA]K(Biotin)-NH2)
- RMax: 0.11 ± 0.004
- binding to the Delta variant of spike protein RBD (in words): able to bind to the Delta variant of spike protein RBD with similar affinity; also recorded: can bind to S-protein from the SARS-CoV-2 Delta variant
